# Patent US20040048260A1, “Transfection of nucleic acid” (priority 2002, published 2004)
# How the values were obtained:
# [1] = Stability of DOTAP coating on 96-well plates under complete medium, examined by microscope; type: physicochemical
# Description: (§1) Standard 96-well plates were coated with 1,2 bis(oleoyloxy)-3-(trimethylammonio)propane (DOTAP; purchased from Avanti, Alabaster, Ala.), a cationic lipid. More specifically, 50-microliter aliquots of 2.5 nM, 5 nM, 10 nM, 40 nM, 60 nM, and 80 nM DOTAP methanolic solutions were added to the wells of six sets of the 96-well plates respectively. The plates were then dried overnight in a vacuum-drier and stored in a dessicator until use.
# In one experiment, 100 microliters of a complete medium (i.e., RPMI medium containing 10% fetal calf serum, 50 units ml^−1 penicillin, and 50 micrograms ml^−1 streptomycin) was added to each well of the coated plates. The coated surfaces and the overlaying medium were then examined under a microscope at 6-hr intervals for 24 hr.
# [2] = tested on: fluorescent-labeled oligonucleotide; assay: Capture of fluorescent-labeled oligonucleotide by coated plates (fluorescent microscope); type: binding; conditions: 0.1 microgram oligonucleotide per well in 100 microliters complete medium
# Description: as §1
# In another experiment, 0.1 microgram of fluorescent-labeled oligonucleotide was added to each well of the coated plates containing 100 microliters of the above-mentioned medium. The plates were then observed under a fluorescent microscope. The fluorescence was detected only on the coated surfaces but not in the medium.
# HeLa cells [3] = assay: Transfection of HeLa cells with EGFP plasmid on coated 96-well plates; type: cell-based; conditions: 24 hr
# Source text: The coated plates prepared in Example 1 were used to transfect HeLa cells with an expression plasmid encoding Enhanced Green Fluorescent Protein (EGFP; purchased from Clontech, Inc., Palo Alto, Calif.). […] Before transfection, 1×10^6 HeLa cells were harvested and resuspended in 5 milliliters of the complete medium described in Example 1. 1 microgram of the EGFP plasmid was mixed with the cells. The mixture was subsequently placed into the coated plates (about 5,000 cells per well). After the cells had grown on the plates for 24 hr, pictures were taken under a fluorescent microscope.
# Standard 96-well plates were coated with polyethylenimine […], a cationic polymer. More specifically, PEI (MW 25,000 Daltons) was purchased from Sigma-Aldrich (St. Louis, Mo.) and dissolved in deionized water to reach a concentration of 10 mg/ml. Each PEI solution was passed through a 0.45-micrometer filter membrane. This filtrate was used as the PEI stock solution and stored at 4° C. To coat the plates, the stock solution was diluted with sterile deionized water to 20 microgram/ml and a 10-microliter aliquot was added to each well of 96-well plates. The plates were dried and stored in the manner as described in Example 1.
# To conduct transfection, HeLa cells were mixed with the EGFP plasmid in the complete medium described in Example 1 and placed onto the PEI-coated plates. […]
# HeLa cells [4] = assay: Transfection of HeLa cells with EGFP plasmid on glass slides tethered with DOTAP or PEI; type: cell-based; conditions: HeLa cells on glass slides printed with gelatin or chitosan and tethered coating, 24 hours
# Description: Glass slides were tethered with DOTAP or PEI and used to transfect HeLa cells.
# More specifically, borosilicate glass slides (VWR Scientific, Media, Pa.) were cleaned with Linbro 7× detergent (ICN Biomedicals, Inc., Aurora, Ohio), diluted 1:3 (v/v) in deionized water, and baked at 450° C. for 4 hr. The slides were then printed with gelatin or chitosan by microcontact printing using polydimethylsiloxane (PDMS; Sylgard 184; Dow Corning, Midland, Mich.) elastomer stamps. See Kam L. et al., J Biomed Mater Res. 55: 487-495 (2001). One milliliter of 10 nM DOTAP solution and 20 microgram/ml PEI solutions were respectively overlaid onto two set of slides for one minute. The slides were then briefly rinsed with Dulbecco's modified Eagle's medium (DMEM; Gibco BRL, Great Island, N.Y.) before use.
# HeLa cells were mixed with the EGFP plasmid and seeded onto slides that were placed in 100 mm cell culture dishes containing the above-mentioned complete medium.
structure (smiles),measurement,setting,value
"CCCCCCCC/C=C\CCCCCCCC(=O)OCC(C[N+](C)(C)C)OC(=O)CCCCCCC/C=C\CCCCCCCC (stereo not drawn) [DOTAP, 1,2 bis(oleoyloxy)-3-(trimethylammonio)propane]",liposome-like particles on the coated surfaces or in the medium,"[1]; complete medium, 24 hr, all plates",no liposome-like particles were found
same,change of coated surfaces under complete medium,"[1]; plates coated with 2.5-80 nM DOTAP solutions, examined at 6-hr intervals for 24 hr",no difference
same,capture of nucleic acid (location of fluorescence),[2],effectively capture nucleic acid
same,cell shape / spreading on the coated plates,"HeLa cells [3]; HeLa cells, microscopic views",spread unexpectedly well
same,cells expressing GFP / transfected (of total HeLa cells),"HeLa cells [3]; coated 96-well plates, fluorescent microscope, PEI density greater than 0.3 microgram/cm^2",more than 80%
same,cells found to express GFP,HeLa cells [4],80%
